Experimental findings from patent US20260324646A1, “BIOLOGICAL COMPOSITION FOR USE AGAINST PLANT FUNGICIDAL INFECTIONS” (UNIVERSITA' DEGLI STUDI DI MILANO, priority 2023, published 2026) are described below.

Series [1] deals with Alternaria sp. and B. caroliniana. Nature of the series: In vitro growth inhibition of phytopathogenic fungi on PDA (radial growth rate, 12-day effect). The class given is cell-based, Alternaria sp.; Botrytis caroliniana. Particulars: for radial growth rate (Kr): PDA, 27±1° C. The method, then: The phytopathogenic fungus Alternaria sp. was isolated in December 2021 from a vineyard in Oltrepo pavese (Santa Maria della Versa, Pavia, Italy).
In addition to Alternaria sp., experiments were also carried out on the fungus Botrytis caroliniana.
(§1) The fungal strains were maintained on potato dextrose agar (PDA, Merck kGaA, Darmstadt, Germany) at 4±1° C. and regularly subcultured. Plants of Solanum lycopersicum (cultivar Rio Grande) were sprouted in the greenhouse of the Fondazione dell'Università di Milano Filarete (Milan, Italy) under controlled conditions (T=18/25±1° C. (night/day), humidity ≥90%, photoperiod 16 h light:8 h dark). Determination of in vitro growth inhibition caused by mixtures of CA, BA, CaCl2 and the compositions of the invention was performed by measuring the diameter and calculating the radial growth rate (Kr, mm/h). The diameter growth of the fungi was determined daily, in six repetitions, using the Image J program (Copyright© 1993, 2018, Oracle).
The fungal cultures were carried out in Petri dishes (6 Well Cell Culture Plates, Sigma-Aldrich). The media treated with the compositions of the invention were inoculated with mycelial caps (diameter 7 mm) of growing active fungal strains (e.g., Alternaria sp. and B. caroliniana). The control cultures are carried out on PDA support and compared with those conducted on CA, BA, CaCl2 and on compositions according to the invention. The media was sterilized at 121° C. for 20 min. Incubation was carried out at 27±1° C. for 12 days in a static incubator (Memmert GmbH+Co. KG, Schwabach, Germany).
The results are shown in FIG. 1 (a) PDA control; b) PDA substrate containing citric acid).

For another series, the system named is S. lycopersicum plants. The series can be described thus: Phytotoxicity to treated plants in the in vivo experiments. The arrangement: species or system Solanum lycopersicum (cultivar Rio Grande). Particulars: BA 3X (4.8 mM), sprayed 24 hours after infection. The procedure: as §1
S. lycopersicum plants were infected by […] the spores of the pathogenic fungus Alternaria sp. on the attached leaves and stem. Alternaria sp. spores were obtained by dropping 20 mL of sterile H2O into a culture of the fungus in a Petri dish. The inoculum was calculated after enumerating the spores under light microscope using a counting chamber device and the concentration was 3.1×10^6 spores/mL. 24 hours after infection, the attached leaves were sprayed with the compositions of the invention. The plants were infected and untreated, or treated with CA mixtures or with the compositions of the invention 24 hours after infection with Alternaria sp. […]

With `O=C(O)CC(O)(CC(=O)O)C(=O)O` [CA, Citric acid], the “radial growth rate (Kr)” value turned out to be 0.099 mm/h in series [1] (CA 1X (0.01M)); 0.028 mm/h in series [1] (CA 2X (0.02M)); 0.034 mm/h in series [1] (CA 3X (0.03M)); 0.012 mm/h in series [1] (CA 5X (0.05M)); 0.020 mm/h in series [1] (CA 7X (0.07M)); 0.000 mm/h in series [1] (CA 10X (0.1M)). For the same molecule, the “radial growth rate (Kr)” value in series [1] (CA 105X (1M)) turned out to be 0.000 mm/h. Moreover, the “Effect (12 days from cultivation)” value in series [1] (CA 10X (0.1M)) and in series [1] (CA 105X (1M)) was “−” in each case.
Consider `[Ca+2].[Cl-].[Cl-]` [CaCl2, Calcium chloride], for which the “Effect (12 days from cultivation)” value in series [1] (CaCl2 1X (0.45 mM)) and in series [1] (CaCl2 2X (0.90 mM)) was “+++++” throughout. The “radial growth rate (Kr)” value is 0.214 mm/h in series [1] (CaCl2 1X (0.45 mM)), 0.221 mm/h in series [1] (CaCl2 2X (0.90 mM)) and 0.077 mm/h in series [1] (CaCl2 3X (1.4 mM)).
In the case of `OB(O)O` [BA, Boric acid], the “Effect (8 days after infection): toxicity for the plant” value in the series with S. lycopersicum plants is recorded as “Toxic for the plant”. Further, the “radial growth rate (Kr)” value stood at 0.115 mm/h in series [1] (BA 1X (1.6 mM)), 0.051 mm/h in series [1] (BA 3X (4.8 mM)) and 0.003 mm/h in series [1] (BA 5X (8.0 mM)). Further, the “Effect (12 days from cultivation)” value in series [1] (BA 5X (8.0 mM)) was “−”.
